This is an account of results in publication PMC6097184 (Clinical cancer research : an official journal of the …, 2017).

One data set has as its target T1, human OAT3 (Homo sapiens, UniProt Q8TCC7).
T1 sequence (Q8TCC7 1-542): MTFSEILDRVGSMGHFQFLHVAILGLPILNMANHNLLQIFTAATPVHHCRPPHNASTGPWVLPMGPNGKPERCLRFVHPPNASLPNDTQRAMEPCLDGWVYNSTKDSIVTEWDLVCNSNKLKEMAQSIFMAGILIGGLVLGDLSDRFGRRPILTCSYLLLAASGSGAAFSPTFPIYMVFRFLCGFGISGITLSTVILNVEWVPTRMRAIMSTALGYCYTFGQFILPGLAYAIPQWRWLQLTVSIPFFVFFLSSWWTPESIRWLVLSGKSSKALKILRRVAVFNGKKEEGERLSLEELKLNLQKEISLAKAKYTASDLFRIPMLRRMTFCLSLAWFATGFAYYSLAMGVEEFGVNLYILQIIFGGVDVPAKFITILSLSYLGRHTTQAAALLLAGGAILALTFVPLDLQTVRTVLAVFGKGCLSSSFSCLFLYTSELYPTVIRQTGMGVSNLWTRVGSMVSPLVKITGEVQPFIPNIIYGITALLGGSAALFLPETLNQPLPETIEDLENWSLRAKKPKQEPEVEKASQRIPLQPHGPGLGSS
The experiment in a line: cellular uptake in HEK293 cells overexpressing OAT3.

The next data set addresses T2, human OATP2B1 (Homo sapiens, UniProt O94956).
T2 sequence (O94956 1-709): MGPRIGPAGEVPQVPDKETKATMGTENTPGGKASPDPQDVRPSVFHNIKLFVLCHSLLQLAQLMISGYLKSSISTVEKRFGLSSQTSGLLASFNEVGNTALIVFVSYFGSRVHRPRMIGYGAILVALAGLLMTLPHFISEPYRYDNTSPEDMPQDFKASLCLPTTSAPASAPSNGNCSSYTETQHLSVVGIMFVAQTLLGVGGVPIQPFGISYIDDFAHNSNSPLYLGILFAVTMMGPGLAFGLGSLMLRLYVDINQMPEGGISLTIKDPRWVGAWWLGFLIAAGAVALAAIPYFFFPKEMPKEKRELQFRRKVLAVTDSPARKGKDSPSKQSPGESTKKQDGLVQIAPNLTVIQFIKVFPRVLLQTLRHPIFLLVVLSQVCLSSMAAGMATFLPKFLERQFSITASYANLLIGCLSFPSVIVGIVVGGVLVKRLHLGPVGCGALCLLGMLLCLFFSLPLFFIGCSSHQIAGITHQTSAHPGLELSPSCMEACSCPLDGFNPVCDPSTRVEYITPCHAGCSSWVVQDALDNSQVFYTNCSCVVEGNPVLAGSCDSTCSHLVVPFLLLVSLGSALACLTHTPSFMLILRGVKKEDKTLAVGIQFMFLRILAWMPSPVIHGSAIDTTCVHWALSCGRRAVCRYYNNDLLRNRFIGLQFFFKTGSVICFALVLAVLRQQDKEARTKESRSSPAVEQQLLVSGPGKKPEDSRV
The experiment in a line: cellular uptake in HEK293 cells overexpressing OATP2B1. The note with it: 10 μmol/L fluvastatin A.

The format of data set [1] is in vivo. The following applies: human, po, 400 mg, range, 20 patients with glioblastoma, single oral dose 100, 200 or 400 mg.
A short description of data set [2]: fraction unbound in plasma. Format: in vitro ADME. The following applies: human, patient plasma, fu,p, mean ± SD, plasma of 20 patients with glioblastoma.
A short description of data set [3]: physicochemical parameters from literature. The following applies: high permeability and low solubility.
The target in the next data set is Wee1 tyrosine kinase. The following applies: ref https://ncats.nih.gov/files/AZD1775.pdf; cited from earlier work.
Data set [4] concerns DNA damage and G2-checkpoint escape. The following applies: ref https://ncats.nih.gov/files/AZD1775.pdf; cited from earlier work.

What is called Kp is the ratio of the level in a tissue or fluid to that in plasma or blood. As a reminder, the fraction unbound is the share of the substance not bound to proteins or other matrix. Low readings indicate little free substance, high ones much free substance.

As to `C[C@]12CC[C@@H]3c4ccc(OS(=O)(=O)O)cc4CC[C@H]3[C@@H]1CCC2=O` [estrone-3-sulfate], on human OAT3 (50 μmol/L probenecid), the “cellular uptake in OAT3 cells in presence of inhibitor” value is on record as “reduced estrone-3-sulfate uptake to a level similar to that in the vector control”. At human OAT3 (no inhibitor), the “cellular uptake in HEK293 cells overexpressing OAT3 compared with vector control” value was “significantly higher”. Further, the “cellular uptake in OATP2B1 cells in presence of inhibitor” value on human OATP2B1 is recorded as “reduced estrone-3-sulfate uptake to a level similar to that in the vector control”.
Take `C=CCn1c(=O)c2cnc(Nc3ccc(N4CCN(C)CC4)cc3)nc2n1-c1cccc(C(C)(C)O)n1` [AZD1775]: the Kp in data set [1] (tumor / plasma (total), total tumor-to-plasma concentration ratio (Kp)) was 3.8 to 40.4. The Kp uu in data set [1] (tumor / plasma (unbound), unbound tumor-to-plasma concentration ratio (Kp,uu)) lay in the range of 1.3 to 24.4. The fraction unbound in data set [2] is 0.182 ± 0.024. Further, the “Biopharmaceutics Classification System (BCS) class” value in data set [3] is on record as “class II”. The “enzyme IC50 for inhibiting Wee1 activity” value on Wee1 tyrosine kinase is 0.0026 µg/mL. Moreover, the “IC50 for inducing DNA damage and G2-checkpoint escape in cell-based assays” value in data set [4] is approximately 0.04 µg/mL.
